Measurements from publication PMC11645267, “Novel pharmacologic inhibition of lysine-specific demethylase 1 as a potential therapeutic for glioblastoma” (Cancer Gene Therapy, 2024).

Columns and labels:
KINGS1 = assay: Stemness marker expression (qPCR, western blot); format: cell-based; details: KINGS1, 5 μM, 96 h
From the text: (§1) Super-enhancers consist of enhancer clusters with abundant binding of transcription factors and are highly enriched with H3K27ac marks. The H3K4me2 increased regions included the MYC locus and H3K4me2 de novo regions comprised Nestin and SOX2 loci (Fig. 2F, Supplementary Fig. S5A). These regions were also identified as super-enhancers in GSCs using data from our previous study (Fig. 2F). Compared to the large increase in H3K4me2 in these regions, changes in H3K4me3 were subtle after S2172 treatment (only 2582 regions were acquired modification) (Fig. 2C). Increasing the me2/me3 ratio at H3K4 is associated with reduced gene expression. […]
(§2) instructions. For GSC cells, the CellTiter-Glo 3D Viability Assay (Promega, Madison, WI, USA) was used to measure the living cells. All proliferation experiments were repeated […]
Total RNA from the cell lines was extracted using TRIzol (Thermo Fisher Scientific), followed by reverse-transcription using Prime Script RT Master Mix (Takara, Kusatsu, Japan). […]
B. Western blot analysis of LSD1,MYC, Nestin, SOX2,and ACTB in same cells as shown in panel A. ACTB was used as a loading control. […] Quantification of signal intensities of the Western blot (right panel). […] Right panel: Quantification of band signal intensities from the Western blot. […] The ratio was calculated by dividing the cleaved PARP band intensity by the full-length PARP band intensity. […]

F3 = assay: Stemness marker expression (qPCR, western blot); format: cell-based; details: F3, 5 μM, 96 h
From the text: as §1, §2
A. Left panel: Western blot analysis of H3K4me1, H3K4me2, H3K4me3, and H3K9me2 after treatment with either DMSO or S2172 5μM for 96 h in normal neural stem cell F3 . […] Right panel: Quantification of signal intensities of the Western blot. […]
C. […] Right panel: Quantification of band signal intensities from the Western blot.
Error bars indicate the SD; n = 3. […] The ratio was calculated by dividing the intensity of the cleaved PARP band by the full-length PARP band. […]

NC1CCC(NC2CC2c2cc(F)cc(F)c2OCc2ccccc2)CC1 (centres unmarked) [S2172]
stemness marker expression at mRNA and protein levels (KINGS1): did not show significant changes | expression levels of stemness markers (F3): not significantly affected
